Consider two compounds from paper PMC10831936 (iScience, 2024).

SMILES strings stand for the structures.

The subject of experiment [1] is ERBB4 NFAT. The experiment in a line: ERBBprofiler barcoded NFAT pathway sensor, ERBB4 co-transfected. It is filed as cell-based, Rattus norvegicus. To be noted: PC12 cells; constant EGF 30 ng/mL, EGFld 10 ng/mL, serotonin 1 μM; 6 h; barcode readout; relative IC50.
Experiment [2] has as its system A-431 cells. Further details: method as in Li et al., 2017. To be noted: Proliferation assay, SRB method, ref Li et al., 2017, read-out: IC50_Literature, EGFR; cited from earlier work. (In general: Sulforhodamine B stains cellular protein and so reports cell mass.)
Experiment [3] deals with ERBB4 (Homo sapiens, UniProt Q15303). Put plainly: ERBBprofiler barcoded split TEV assay, ERBB4. Particulars: ERBB4 UAS (split TEV) IC50, PC12 cells; constant EGF 30 ng/mL, EGFld 10 ng/mL, serotonin 1 μM; 6 h; barcode readout; relative IC50.
The subject of experiment [4] is phospho-ERK1/2. Put plainly: Western blot of p-ERK1/2 in T-47D cells (EGFld stimulated). It is filed as cell-based. Particulars: Homo sapiens, T47D, compound 1 h, EGFld 10 ng/mL 5 min, read-out: p-ERK1/2 IC50 (ERBB4), Western blot quantification. As to the method:
Phosphorylation levels of EGFR were assessed[37] in A549 cells, while phosphorylation levels of ERBB4 were assessed in T-47D cells. Before stimulation experiments were performed, both cell types were starved overnight in 1% FCS and compounds were incubated for 1 h. […] For lysis, cells were washed 1x with PBS and lysed in a Triton X- lysis buffer (1% Triton X-100, 50 mM Tris pH7.5, 150 mM NaCl, 1 mM EGTA) containing the Complete protease inhibitor cocktail (Roche) and PhosSTOP phosphatase inhibitor (Roche). Briefly, cells were lysed and kept on ice for 10 min, sonicated 3x for 10 s at 4°C, and denatured for 10 min at 70°C. The Mini-PROTEAN Tetra Electrophoresis System and Trans-Blot Turbo Botting System (both Bio-Rad) were used for running and blotting protein gels. […] Total EGFR and ERBB4 protein levels were determined using an anti-EGFR antibody (RRID: AB_10920395) (clone A-10, dilution 1:1000, sc-373746, Santa Cruz Biotechnology) and an anti-ERBB4 antibody (RRID: AB_731579) (clone E200, dilution 1:1000, ab32375, Abcam). […] Tubulin levels were determined using an anti-Tubulin antibody (RRID: AB_477579) (dilution 1:2000, No. T 5168, Sigma-Aldrich). For quantification, phosphorylation levels of p-EGFR relative to EGFR as well as p-ERBB4 relative to ERBB4 were calculated using the Lukemiller protocol (http://lukemiller.org/index.php/2010/11/analyzing-gels-and-western-blots-with-image-j/). […]
(In general: A western blot detects proteins with antibodies after separation by electrophoresis.)

In experiment [5] the test system is EGFR NFAT. The experiment in a line: ERBBprofiler barcoded NFAT pathway sensor, EGFR co-transfected. To be noted: PC12 cells; constant EGF 30 ng/mL, EGFld 10 ng/mL, serotonin 1 μM; 6 h; barcode readout; relative IC50. It is filed as cell-based, Rattus norvegicus.
Experiment [6] deals with HTR2A (Homo sapiens, UniProt P28223). The experiment in a line: ERBBprofiler barcoded split TEV assay, HTR2A.
Experiment [7] concerns CRE sensor. The experiment in a line: CRE sensor only luciferase assay in PC12 cells. The class given is cell-based, Rattus norvegicus.
In experiment [8] the test system is SK–BR–3 cells and NCI-N87 cells. Further details: method as in Li et al., 2017. Particulars: Proliferation assay, SRB method, ref Li et al., 2017, read-out: IC50_Literature, ERBB2; cited from earlier work.
The subject of experiment [9] is EGFR. Also noted: method as in Fry et al., 1994. Particulars: phospho-WB in A-431 cells; ref Fry et al., 1994; read-out: IC50_Literature, EGFR; cited from earlier work.
Experiment [10] concerns ERBB3. Further details: method as in Boateng et al., 2021. To be noted: ELISA in MCF-7 cells; ref Boateng et al., 2021; read-out: IC50_Literature, ERBB3; cited from earlier work. Background: ELISA stands for enzyme-linked immunosorbent assay.
Experiment [11] has as its system EGFR CRE. The experiment in a line: ERBBprofiler barcoded CRE pathway sensor, EGFR co-transfected. To be noted: PC12 cells; constant EGF 30 ng/mL, EGFld 10 ng/mL, serotonin 1 μM; 6 h; barcode readout; relative IC50.
For experiment [12], the system named is ERBB4 CRE. Put plainly: ERBBprofiler barcoded CRE pathway sensor, ERBB4 co-transfected. To be noted: PC12 cells; constant EGF 30 ng/mL, EGFld 10 ng/mL, serotonin 1 μM; 6 h; barcode readout; relative IC50.
Experiment [13] has as its system HTR2A CRE. Put plainly: ERBBprofiler barcoded CRE pathway sensor, HTR2A co-transfected. Particulars: Rattus norvegicus, PC-12, 6 h, read-out: HTR2A CRE IC50.
In experiment [14] the test system is SkBr3, BT474 and HER2-overexpressing ovarian cancer cells SkOV3. Also noted: method as in Moasser et al., 2001. Particulars: cell growth assay in SkBr3, BT474 and SkOV3 cells; ref Moasser et al., 2001; read-out: IC50_Literature, ERBB2; cited from earlier work.

Sequence of ERBB4 (Q15303 26-1308): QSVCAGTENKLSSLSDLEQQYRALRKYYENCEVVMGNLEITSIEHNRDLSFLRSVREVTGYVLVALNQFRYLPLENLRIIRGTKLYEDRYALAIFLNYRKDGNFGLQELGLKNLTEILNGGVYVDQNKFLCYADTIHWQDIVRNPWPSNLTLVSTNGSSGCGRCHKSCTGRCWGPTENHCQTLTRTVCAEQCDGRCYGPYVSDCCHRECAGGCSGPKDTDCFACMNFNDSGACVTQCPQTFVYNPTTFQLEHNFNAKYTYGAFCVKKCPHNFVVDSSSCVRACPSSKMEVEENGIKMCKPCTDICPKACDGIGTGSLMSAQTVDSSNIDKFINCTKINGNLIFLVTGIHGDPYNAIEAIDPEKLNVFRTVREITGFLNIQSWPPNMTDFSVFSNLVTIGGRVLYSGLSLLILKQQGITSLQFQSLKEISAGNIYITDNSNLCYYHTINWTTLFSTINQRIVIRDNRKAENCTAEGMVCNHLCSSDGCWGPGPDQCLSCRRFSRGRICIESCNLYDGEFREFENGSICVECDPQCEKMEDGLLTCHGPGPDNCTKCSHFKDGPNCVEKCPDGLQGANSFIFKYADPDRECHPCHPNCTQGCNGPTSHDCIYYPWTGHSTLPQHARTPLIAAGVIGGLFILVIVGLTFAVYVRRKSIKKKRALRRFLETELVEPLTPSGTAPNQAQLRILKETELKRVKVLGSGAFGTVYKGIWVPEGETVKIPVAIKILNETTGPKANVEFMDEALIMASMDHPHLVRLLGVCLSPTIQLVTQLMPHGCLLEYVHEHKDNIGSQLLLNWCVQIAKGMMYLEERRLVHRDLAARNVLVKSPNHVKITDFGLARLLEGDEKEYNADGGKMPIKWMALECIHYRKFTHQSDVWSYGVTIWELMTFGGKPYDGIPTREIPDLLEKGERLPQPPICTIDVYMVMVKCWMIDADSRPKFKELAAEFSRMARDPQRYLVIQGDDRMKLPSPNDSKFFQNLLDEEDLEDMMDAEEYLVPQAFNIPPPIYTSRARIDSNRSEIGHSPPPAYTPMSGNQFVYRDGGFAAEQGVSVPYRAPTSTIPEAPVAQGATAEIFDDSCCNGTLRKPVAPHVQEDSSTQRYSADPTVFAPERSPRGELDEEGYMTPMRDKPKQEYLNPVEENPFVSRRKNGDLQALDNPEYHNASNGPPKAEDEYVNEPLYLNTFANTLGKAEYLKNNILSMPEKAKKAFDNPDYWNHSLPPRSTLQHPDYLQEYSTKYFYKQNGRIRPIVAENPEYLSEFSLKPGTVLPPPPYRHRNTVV
Sequence of HTR2A (P28223 whole entry): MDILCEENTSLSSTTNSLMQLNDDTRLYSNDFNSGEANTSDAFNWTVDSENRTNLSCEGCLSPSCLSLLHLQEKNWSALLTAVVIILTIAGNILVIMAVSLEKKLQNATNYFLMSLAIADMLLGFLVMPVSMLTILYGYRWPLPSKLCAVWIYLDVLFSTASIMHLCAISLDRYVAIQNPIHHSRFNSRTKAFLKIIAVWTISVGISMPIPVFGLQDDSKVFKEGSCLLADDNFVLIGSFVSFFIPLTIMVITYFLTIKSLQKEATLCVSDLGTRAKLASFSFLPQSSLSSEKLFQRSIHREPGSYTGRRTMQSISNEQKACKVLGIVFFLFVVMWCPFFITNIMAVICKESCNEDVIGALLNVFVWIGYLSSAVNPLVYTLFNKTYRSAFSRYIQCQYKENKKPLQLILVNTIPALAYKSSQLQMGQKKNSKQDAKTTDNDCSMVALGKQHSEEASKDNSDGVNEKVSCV

A word on the EC50: it is the midpoint of the concentration-response curve. A lower EC50 goes with a more potent agent. Regarding `CCOc1cc2ncc(C#N)c(Nc3ccc(OCc4ccccn4)c(Cl)c3)c2cc1NC(=O)/C=C/[C@H]1CCCN1C` [Pyrotinib], the “ERBB4 NFAT IC50” value in [1] was “no effect (EGFR, ERBB2/3, ERBB4) - 0.576 µM (HTR2A, small effect)”. In addition, the IC50 is 45 nM in experiment [2]; 117 nM in experiment [3]; 4990 nM in [4]; 184 nM in experiment [6]; 39 to 42 nM in [8]. In [5], the “EGFR NFAT IC50” value was “no effect (EGFR, ERBB2/3, ERBB4) - 0.576 µM (HTR2A, small effect)”. Besides, the “effect on CRE sensor activity (luciferase), in words” value in [7] (PC12 cells, CRE sensor only, stimulation mix) is reported as “CRE sensor activation at high compound concentrations”. In [7] (Rattus norvegicus, PC-12), this compound registered an EC50 of 1380 nM.

As for `COc1cc2ncnc(Nc3cccc(Cl)c3)c2cc1OC` [AG1478, AG-1478 (Tyrphostin AG-1478)], the IC50 in experiment [9] is […]; in experiment [3], 654 nM; in experiment [4] it was 147 nM; in experiment [10], 857 nM; in experiment [13], 31 nM; in experiment [6] it was 17 nM. Besides, the IC50 in experiment [14] was 300 to 2000 nM. In addition, the “EGFR CRE IC50” value in experiment [11] was “no effect (EGFR, ERBB2/3, ERBB4); 0.031 µM (HTR2A, small effect)”. For the same compound, in [12], the “ERBB4 CRE IC50” value is on record as “no effect (EGFR, ERBB2/3, ERBB4); 0.031 µM (HTR2A, small effect)”.
